From US11779613B2, “Compositions comprising a bacterial strain of the genus Megasphera and uses thereof” (CJ BIOSCIENCE, INC., priority 2017, dated 2023)

Key:
[1] = tested on: SH-SY5Y neuroblastoma cells; test: Cell viability / neuroprotection of SH-SY5Y neuroblastoma cells with or without MPP (CCK-8); type: cell-based, human; details: compared to YCFA-MPP+ treated sample, FIG. 15
Experimental: SH-SY5Y neuroblastoma cells were purchased from ECCACC (Cat. no: 94030304) and were grown in MEM (Sigma Aldrich, cat n. M2279) supplemented with Nutrient Mixture F-12 Ham (Sigma Aldrich, cat n. N4888).
Once grown the SH-SY5Y neuroblastoma cells were plated on 96-well plate at 11,000 cells/well and incubated for 2 days. The cells were then transferred to differentiation medium (which contains FBS at 1%) and 10 uM retinoic acid (Sigma Aldrich, cat. n. R2625-100MG). Differentiation medium was replaced every other day and cells were harvested at 7 day of differentiation. Cells were pre-treated with or without MPP (Sigma Aldrich, cat. n. D048-1G) for 8 hours. Subsequently, cells were treated with 10% bacterial supernatant and incubated overnight. Cell viability was measured by using CCK-8 reagent (Sigma Aldrich, Cell Counting Kit—8, cat. n. 96992-3000TESTS-F) and read at 450 nm wavelength.
RA-differentiated SHSY-5Y cells were treated with MPP+, the active metabolite of MPTP, a chemical widely used to mimic in vitro and in vivo some of the features of PD pathology. Cell viability was measured as the rate of mitochondria respiration (FIG. 15).

histone deacetylase [2] = test: Histone deacetylase activity in HT-29 whole cells; type: cell-based; details: for total HDAC activity, pure substances: different concentrations, whole HT-29 cells and HT-29 cell lysate, FIG. 16B
Experimental: The cell line HT-29 was used because histone deacetylase is present.
Cell free supernatants of stationary phase bacterial cultures were isolated by centrifugation and filtering in a 0.22 uM filter. HT-29 cells were used 3 days' post confluence and stepped down in 1 mL DTS 24 hours prior to commencement of the experiment. The HT-29 cells were challenged with 10% cell free supernatant diluted in DTS and was is left to incubate for 48 hours. […] extraction kit and samples were snap frozen prior to HDAC activity measurement. HDAC activity was assessed fluorometrically using the Sigma Aldrich (UK) kit.
(§1) Pure cultures of bacteria were grown anaerobically in YCFA broth until they reached their stationary growth phase. Cultures were centrifuged at 5,000×g for 5 minutes and the cell-free supernatant (CFS) was filtered using a […] (Millipore, UK). 1 mL aliquots of the CFS were stored at −80° C. until use. Sodium butyrate, hexanoic and valeric acid were obtained from Sigma Aldrich (UK) and suspensions were prepared in YCFA broth.
(§2) To investigate which metabolites were responsible for the strain-induced HDAC inhibition, different concentrations of hexanoic acid, valeric acid and sodium butyrate were measured for their HDAC inhibition on whole HT-29 cells and on HT-29 cell lysate.

histone deacetylase [3] = test: Histone deacetylase activity in HT-29 cell lysate; type: biochemical; details: FIG. 16A/16B
Experimental: as §1, §2

SMILES	protection from MPP+ [1]	total HDAC activity, pure substances (histone deacetylase [2])	HDAC inhibition, HT29 whole cells (histone deacetylase [2]; FIG. 16A/16B)	HDAC inhibition, HT29 cell lysates (histone deacetylase [3])	total HDAC activity, pure substances (histone deacetylase [2]; listed as Valeric acid)
O=c1c(O)c(-c2ccc(O)c(O)c2)oc2cc(O)cc(O)c12 [quercetin, Quercetin]	about 20%	–	–	–	–
CCCCCC(=O)O [hexanoic acid]	–	did not show significant inhibitory activity	–	–	–
CCCC(=O)[O-].[Na+] [sodium butyrate, Sodium butyrate]	–	significant HDAC inhibition	significant (P<0.05) inhibition	significant (P<0.05) inhibition	–
CCCCC(=O)O [valeric acid]	–	significant HDAC inhibition	–	–	inhibited total HDAC activity
